From US9555057B2, “Compositions and methods for reducing cutaneous microbiome malodor” (The Research Foundation for The State University of New York, priority 2014, dated 2017)

Legend:
[1] = pH and solubility of solutions, suspensions and formulae; format: physicochemical; conditions: 36 mM (zinc acetate and zinc carbonate also 72 mM)
Staph. haemolyticus = assay: Arginolysis: pH during incubation with arginine; format: cell-based, Staphylococcus haemolyticus; conditions: 6.0 mM arginine, 4 hours
Description: (§1) Each microorganism was recovered from its frozen state at −70° C. and grown at 37° C. in 10 ml of appropriate and respective culture media for a period between 24 and 48 hours (see Table 1). Incubations were carried out to middle and late exponential stages of bacterial growth under the incubation conditions indicated in Table 1. A 1.5 ml inoculum was transferred therefrom to polypropylene bottles containing 150 ml of the initial growth medium. This was then incubated at 37° C. for 24 to 48 hours. Bacteria were harvested by centrifugation (DuPone, Sorvall, Newtown, Conn.) at 10,000 g and 4° C. for 20 min. The volume of bacterial pellet obtained was between about 2.5 and 3.5 ml. The sediment was then washed with sterile distilled water to remove residual growth medium. This was done by centrifuging the bacterial sediment three times at 1,740 g for 15 min at 4° C. […]

P. avidum = assay: Arginolysis: pH during incubation with arginine; format: cell-based, Propionibacterium avidum; conditions: 6.0 mM arginine
Description: as §1

[2] = tested on: pure cultures of microorganisms resident on human axillary skin; conditions: 6.0 mM arginine; Staph. epidermidis, Staph. haemolyticus and P. avidum
Description: Pure cultures of the numerically most prominent microorganisms normally resident on human axillary skin (see Table 1) were surveyed for their effects on (i) pH, (ii) Eh, (iii) ability to generate malodor and (iv) ability to generate hydrogen peroxide. Four hour incubation experiments were conducted, in which each of a wide range of carbohydrate and amino acid substrates (see Table 1) were surveyed for malodor production and related changes in pH and Eh thereto.
Each microorganism was recovered from its frozen state at −70° C. and grown at 37° C. in 10 ml of appropriate and respective culture media for a period between 24 and 48 hours (see Table 1). Incubations were carried out to middle and late exponential stages of bacterial growth under the incubation conditions indicated in Table 1. A 1.5 ml inoculum was transferred therefrom to polypropylene bottles containing 150 ml of the initial growth medium. This was then incubated at 37° C. for 24 to 48 hours. Bacteria were harvested by centrifugation (DuPone, Sorvall, Newtown, Conn.) at 10,000 g and 4° C. for 20 min. […] The sediment was then washed with sterile distilled water to remove residual growth medium. This was done by centrifuging the bacterial sediment three times at 1,740 g for 15 min at 4° C.
Each pure culture was pre-incubated at 37° C. at pH 7.0 to exhaust or reduce any stored carbohydrate and other carbon/energy sources acquired during growth in culture.
Both of these electrodes were connected to a second pH meter (pH M26 Radiometer Copenhagen NV, Denmark) and used here as a millivoltmeter. For the Eh measurements, when the Eh electrode was immersed in an incubation mixture, each Eh reading was recorded after allowing several seconds for each reading to stabilize. The Eh value was related to that of the hydrogen electrode by adding to each reading the difference between the E0 value for the Red Rod reference element-mercury and hydrogen electrodes—i.e. 270 my at 25° C.
At each time point, the odor was determined organoleptically by immersing a solid glass rod into each incubation mixture, stirring gently 3 times and then removing and carefully smelling the rod after 5 seconds. The intensity of the odor was assessed on a 0 to 4 numerical scale (0—no odor, 1—mild odor, 2—moderate odor, 3—strong odor, and 4—very strong odor).

Staph. epidermidis = assay: Arginolysis: pH during incubation with arginine; format: cell-based, Staphylococcus epidermidis; conditions: 6.0 mM arginine
Description: as §1

[3] = tested on: C. striatum, Staph. epidermidis or a 1:1 mixture thereof; conditions: zinc acetate, CIL and either arginine or arginine bicarbonate, pH 4.0 to 8.0, 4 hours, no phenylalanine
Description: The pH of the medium with each of the different zinc salts needed some adjustment, which was done with 1 M HCl or 1 M NaOH depending upon the pH of the stock solutions of each zinc salt employed.

| Structure (SMILES) | pH of stock solution in de-ionized water [1] | pH reached during arginolysis (Staph. haemolyticus) | pH rise above the level with Staph. epidermidis (P. avidum) | Odor during arginolysis [2] | pH of the incubation mixture (Staph. epidermidis; end of the 4 hours of incubation) | pH of the incubation mixture (Staph. epidermidis; start pH 7.0, within the first 15 min) | Sulfurous odor and Eh [3] |
| --- | --- | --- | --- | --- | --- | --- | --- |
| [Cl-].[Cl-].[Zn+2] [Zinc chloride] | 6.7 | – | – | – | – | – | – |
| N=C(N)NCCC[C@H](N)C(=O)O [arginine] | – | 8.2 | about 0.3 pH units | No odor of significance | 7.7 | 7.4 | No sulfurous odor nor corresponding decrease in the Eh |
